Test results from publication PMC8954350, “Non-Canonical Cannabinoid Receptors with Distinct Binding and Signaling Properties in Prostate and Other Cancer Cell Types Mediate Cell Death” (International Journal of Molecular Sciences, 2022).
Like-named read-outs stand apart in the source and are kept apart here.

Key:
[1] = test system: CBRs expressed in PC-3 membranes; test: [^3H]WIN-55,212-2 competitive binding screen, PC-3 membranes; design: species or system human
Experimental: (§1) The assay was conducted as previously detailed. […] All binding reactions were conducted in triplicate, in a final volume of 1 mL, and, following mixing, were incubated for 20 min in a 37 °C water bath to achieve equilibrium. After incubation, reactions were terminated by rapid vacuum filtration through Whatman GF/B glass fiber filters (Brandel; Gaithersburg, MD, USA), followed by three washes of 4 mls of ice-cold filtration buffer (50 mM Tris, pH 7.4, and 0.05% bovine serum albumin). Samples were punched out from filter papers into scintillation vials, to which 4 mls of ScintiverseTM-BDR cocktail scintillation fluid (Fisher Scientific; Hampton, NH, USA) was added. Filters were incubated at room temperature for 24 h in scintillation fluid, vortexed, and radioactivity (measured as DPMs) was quantified via a liquid scintillation spectrophotometer (Tri Carb 2100 TR Liquid Scintillation Analyzer, Packard Instruments, Meriden, CT, USA).
(§2) These experiments were conducted to screen well-characterized cannabinoid ligands with high affinity for canonical CB1 and/or CB2Rs for binding to CBRs expressed in prostate cancer cells lines, as detailed in [33]. […] All binding reactions were conducted in triplicate, in a final volume of 1 mL, and, following mixing, were incubated for 20 min in a 37 °C water bath to achieve equilibrium. After incubation, reactions were terminated by rapid vacuum filtration and processed for radioactivity, as detailed in Section 4.5.1.

[2] = test system: CBRs expressed in DU-145 membranes; format: binding, human
Experimental: as §1, §2

DU-145 cells [3] = test: LDH cytotoxicity, DU-145 cells; format: cell-based, human; settings: 500 nM, 24 h
Experimental: DU-145 cells were seeded at a density of 130 × 10^3 cells/well in 6-well plates and maintained in an incubator at 37 °C with 5% CO2 for 24 h. […] Treated cells were incubated for an additional 24 h, followed by quantification of LDH release. LDH released from damaged or dying cells oxidizes lactate to produce NADH which then reacts with a water-soluble tetrazolium salt (WST) reagent to produce a yellow-colored product. The intensity of the yellow-colored product was detected with an OD reading at 450 nm (quantified by a BioTek microplate reader interfaced with SoftMax Pro 5.4.5 software; Winooski, VT, USA) and was directly proportional to the amount of LDH released. Percent cytotoxicity was calculated according to the manufacturer’s protocol as the following: % Cytotoxicity=OD450 Supernatant/Supernatant+Lysate

DU-145 cells [4] = test: Mitochondrial membrane potential (JC-1 staining), DU-145 cells; format: cell-based, human; settings: 500 nM, 24 h, JC-1
[5] = 1 μM ligand, 1 nM radioligand, PC-3 membranes

Row | SMILES | displacement of [^3H]WIN-55,212-2 [1, 5] | displacement of [^3H]WIN-55,212-2 [2] | other results
1 | CCCCCc1cc(O)c2c(c1)OC(C)(C)[C@@H]1CCC(C)=C[C@@H]21 [THC, Δ^9-tetrahydrocannabinol] | failed to displace | failed to displace | 
2 | CC(C)[C@H](NC(=O)c1nn(CCCCCF)c2ccccc12)C(N)=O [5F-AB-PINACA] | failed to displace | failed to displace | 
3 | O=C(Oc1cccc2ccccc12)c1cn(Cc2ccc(F)cc2)c2ccccc12 [FDU-PB-22] | failed to displace | failed to displace | 
4 | CCCCCCCCCC(=O)O[C@@H]1[C@@H](C)[C@@]2(O)[C@@H](C=C(COC(=O)Cc3ccc(O)c(OC)c3)C[C@]3(O)C(=O)C(C)=C[C@@H]23)[C@@H]2C(C)(C)[C@]12OC(=O)CCCCCCCCC [PDDHV] |  | Neither the high affinity TRPV1 ligands capsaicin [38], PDDHV [39], and CAY-100448 [40] nor the TRPA1 ligand HC-030031 [41] produced significant displacement | 
5 | OCCOc1ccc(/C(=C(/CCCl)c2ccccc2)c2ccccc2)cc1 [OSP, ospemifene] |  | failed to displace | displacement of [^3H]WIN-55,212-2 [1]: failed to displace
6 | COc1cc(CNC(=O)CCCC/C=C/C(C)C)ccc1O [capsaicin] |  | Neither the high affinity TRPV1 ligands capsaicin [38], PDDHV [39], and CAY-100448 [40] nor the TRPA1 ligand HC-030031 [41] produced significant displacement | 
7 | O=C(NC12CC3CC(CC(C3)C1)C2)c1nn(CCCCCF)c2ccccc12 [5F-AKB48] |  | failed to displace | displacement of [^3H]WIN-55,212-2 [1]: failed to displace
8 | C=C(C)[C@@H]1CCC(C)=C[C@H]1c1c(O)cc(CCCCC)cc1O [CBD, cannabidiol] | failed to displace | failed to displace | 
9 | CC(=O)O[C@@]12CO[C@@H]1C[C@H](O)[C@@]1(C)C(=O)[C@H](O)C3=C(C)[C@@H](OC(=O)[C@H](O)[C@@H](NC(=O)OC(C)(C)C)c4ccccc4)C[C@@](O)([C@@H](OC(=O)c4ccccc4)[C@H]21)C3(C)C [docetaxel] |  |  | increase in LDH release (DU-145 cells [3]): 16.8 ± 3.4%; mitochondrial membrane potential (MMP) depolarization (DU-145 cells [4]): induced significant mitochondrial membrane depolarization
10 | CCCCCCCC/C=C\CCCCCCCC(=O)N[C@H](C(=O)O)C(C)C [N-oleoyl-valine] |  | 15 ± 2.7% | 
11 | CC(C)c1ccc(NC(=O)Cn2cnc3c2c(=O)n(C)c(=O)n3C)cc1 [HC-030031] |  | Neither the high affinity TRPV1 ligands capsaicin [38], PDDHV [39], and CAY-100448 [40] nor the TRPA1 ligand HC-030031 [41] produced significant displacement | 
12 | CCCCC/C=C\C/C=C\C/C=C\C/C=C\CCCC(=O)NCCCl [ACEA] |  | failed to displace | displacement of [^3H]WIN-55,212-2 [1]: failed to displace
13 | Cc1c(C(=O)c2cccc3ccccc23)c2cccc3c2n1[C@@H](CN1CCOCC1)CO3 [WIN-55,212-3] |  | 13.9 ± 2.7% | displacement of [^3H]WIN-55,212-2 [1]: 20.7 ± 10.3%
14 | Cc1c(C(=O)Nc2cccc(C(F)(F)F)c2)cc(-c2ccccc2)n1CCCN1CCOCC1 [HC-067047] |  | 22 ± 3.8% | 
15 | Cc1ccc(C(=O)c2cn(CCCCCF)c3ccccc23)c2ccccc12 [MAM-2201] | failed to displace | failed to displace | 
